Like-named read-outs stand apart in the source and are kept apart here.
How the values were obtained:
[1] = tested on: breast cancer cell lines (e.g. MDA-MB-231, SK-BR-3, MDA-MB-468, HCC1954); experiment: Cell based assay, cell viability (CellTiter-Glo), breast cancer cell lines; details: 72 hours treatment, CellTiter-Glo cell viability
In short: (§1)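 Trypsin-EDTA-detached lines seeded; 24 h later compound added (final 0–2 μM); 72 h exposure; ATP luminescence viability readout.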

[2] = tested on: cervical carcinoma cell lines; experiment: Cell based assay, cell viability (CellTiter-Glo), cervical carcinoma cell lines; details: Homo sapiens; HeLa cells
renal cancer cell lines = experiment: Cell based assay, cell viability (CellTiter-Glo), renal cancer cell lines; details: Homo sapiens; ACHN cells
In short: as §1

[3] = Homo sapiens, BT-20 cells, read-out: IC50, Breast cancer cell line BT-20
[4] = Homo sapiens, HCC1395 cells, read-out: IC50, Breast cancer cell line HCC1395
[5] = Homo sapiens, HCC1954 cells, read-out: IC50, Breast cancer cell line HCC1954
[6] = Homo sapiens, JIMT-1 cells, read-out: IC50, Breast cancer cell line JIMT-1
[7] = Homo sapiens, MCF7 cells, read-out: IC50, Breast cancer cell line MCF7
[8] = Homo sapiens, MDA-MB-231 cells, read-out: IC50, Breast cancer cell line MDA-MB-231
[9] = Homo sapiens, MDA-MB-468 cells, read-out: IC50, Breast cancer cell line MDA-MB-468
[10] = Homo sapiens, SK-BR-3 cells, read-out: IC50, Breast cancer cell line SK-BR-3
[11] = MDA-MB-231-L/DOX cells, read-out: IC50, Breast cancer cell line MDA-MB-231-L/DOX

| IC50 [1, 3] | IC50 [1, 4] | IC50 [1, 5] | IC50 [1, 6] | IC50 [1, 7] | IC50 [1, 8] | IC50 [1, 9] | IC50 [1, 10] | IC50 [1, 11] | IC50 [2] | IC50 (renal cancer cell lines) | SMILES |
| --- | --- | --- | --- | --- | --- | --- | --- | --- | --- | --- | --- |
| > 2000 nM | > 10000 nM | > 2000 nM | > 10000 nM | > 2000 nM | > 2000 nM | > 2000 nM | 1770 nM | > 2000 nM | > 10000 nM | > 2000 nM | CC(=O)c1c([S+]([O-])Cc2cc(C)on2)[nH]c2c(F)ccc(F)c2c1=O (stereo not shown) [Compound 82, 3-acetyl-5,8-difluoro-2-(((5-methylisoxazol-3-yl)methyl)sulfinyl)quinolin-4(1H)-one] |
| > 2000 nM | > 10000 nM | > 2000 nM | > 10000 nM | > 2000 nM | > 2000 nM | > 2000 nM | > 2000 nM | > 2000 nM | > 10000 nM | > 2000 nM | CC(C)C(=O)c1c([S+]([O-])Cc2ccc(SC(F)(F)F)cc2)[nH]c2c(F)ccc(F)c2c1=O (stereo not shown) [Compound 85, 5,8-difluoro-3-isobutyryl-2-((4-((trifluoromethyl)thio)benzyl)sulfinyl)quinolin-4(1H)-one] |
| > 2000 nM | > 10000 nM | > 2000 nM | > 10000 nM | > 2000 nM | > 2000 nM | > 2000 nM | > 2000 nM | > 2000 nM | > 10000 nM | > 2000 nM | O=C(c1ccccc1)c1c([S+]([O-])Cc2ccc(S(F)(F)(F)(F)F)cc2)[nH]c2c(F)ccc(F)c2c1=O (stereo not shown) [Compound 87, 3-benzoyl-5,8-difluoro-2-((4-(pentafluoro--sulfanyl)benzyl)sulfinyl)quinolin-4(1H)-one] |
| > 2000 nM | > 10000 nM | > 2000 nM | > 10000 nM | > 2000 nM | > 2000 nM | > 2000 nM | > 2000 nM | > 2000 nM | > 10000 nM | > 2000 nM | Cc1cc(C[S+]([O-])c2[nH]c3c(Cl)ccc(Cl)c3c(=O)c2C(=O)c2ccccc2)no1 (stereo not shown) [Compound 88, 3-benzoyl-5,8-dichloro-2-(((5-methylisoxazol-3-yl)methyl)sulfinyl)quinolin-4(1H)-one] |
| > 2000 nM | > 10000 nM | > 2000 nM | > 10000 nM | > 2000 nM | > 2000 nM | > 2000 nM | > 2000 nM | > 2000 nM | > 10000 nM | > 2000 nM | CC(=O)c1c([S+]([O-])CN2C(=O)c3ccccc3C2=O)[nH]c2c(Cl)ccc(Cl)c2c1=O (stereo not shown) [Compound 90, 2-(((3-acetyl-5,8-dichloro-4-oxo-1,4-dihydroquinolin-2-yl)sulfinyl)methyl)isoindoline-1,3-dione] |
| > 2000 nM | > 10000 nM | 1820 nM | > 10000 nM | > 2000 nM | > 2000 nM | 1320 nM | 1320 nM | > 2000 nM | > 10000 nM | > 2000 nM | COC(=O)c1ccc(C[S+]([O-])c2[nH]c3c(Cl)ccc(Cl)c3c(=O)c2C(C)=O)cc1 (stereo not shown) [Compound 91, methyl 4-(((3-acetyl-5,8-dichloro-4-oxo-1,4-dihydroquinolin-2-yl)sulfinyl)methyl)benzoate] |
| > 2000 nM | > 10000 nM | > 2000 nM | > 10000 nM | > 2000 nM | > 2000 nM | > 2000 nM | > 2000 nM | > 2000 nM | > 10000 nM | > 2000 nM | COc1cccc2[nH]c(SCc3ccc(S(F)(F)(F)(F)F)cc3)c(C(C)=O)c(=O)c12 [Compound 92, 3-acetyl-5-methoxy-2-((4-(pentafluoro--sulfanyl)benzyl)thio)quinolin-4(1H)-one] |
| > 2000 nM | > 10000 nM | > 2000 nM | > 10000 nM | > 2000 nM | > 2000 nM | > 2000 nM | > 2000 nM | > 2000 nM | > 10000 nM | > 2000 nM | COc1cccc2[nH]c([S+]([O-])Cc3ccc(S(F)(F)(F)(F)F)cc3)c(C(C)=O)c(=O)c12 (stereo not shown) [Compound 93, 3-acetyl-5-methoxy-2-((4-(pentafluoro--sulfanyl)benzyl)sulfinyl)quinolin-4(1H)-one] |
| > 2000 nM | > 10000 nM | > 2000 nM | > 10000 nM | > 2000 nM | > 2000 nM | 1850 nM | 1850 nM | > 2000 nM | > 10000 nM | > 2000 nM | COc1cccc2[nH]c([S+]([O-])Cc3cc(C)on3)c(C(C)=O)c(=O)c12 (stereo not shown) [Compound 94, 3-acetyl-5-methoxy-2-(((5-methylisoxazol-3-yl)methyl)sulfinyl)quinolin-4(1H)-one] |
| > 2000 nM | > 10000 nM | 1040 nM | > 10000 nM | > 2000 nM | > 2000 nM | 980 nM | 980 nM | > 2000 nM | > 2000 nM | 1670 nM | Cc1cc(C[S+]([O-])c2[nH]c3c(Br)ccc(Cl)c3c(=O)c2C(=O)C2CC2)no1 (stereo not shown) [Compound 96, 8-bromo-5-chloro-3-(cyclopropanecarbonyl)-2-(((5-methylisoxazol-3-yl)methyl)sulfinyl)quinolin-4(1H)-one] |
| > 2000 nM | > 10000 nM | 780 nM | > 10000 nM | > 2000 nM | 1780 nM | 760 nM | 760 nM | 1130 nM | > 2000 nM | 1330 nM | Cc1cc(C[S+]([O-])c2[nH]c3c(Cl)ccc(Cl)c3c(=O)c2C(=O)C2CC2)no1 (stereo not shown) [Compound 97, 5,8-dichloro-3-(cyclopropanecarbonyl)-2-(((5-methylisoxazol-3-yl)methyl)sulfinyl)quinolin-4(1H)-one] |
| > 2000 nM | > 10000 nM | 1310 nM | > 10000 nM | > 2000 nM | 1860 nM | 1000 nM | 1000 nM | > 2000 nM | > 2000 nM | 1810 nM | CC(=O)c1c([S+]([O-])Cc2ccc(C#N)s2)[nH]c2c(Br)ccc(Cl)c2c1=O (stereo not shown) [Compound 98, 5-(((3-acetyl-8-bromo-5-chloro-4-oxo-1,4-dihydroquinolin-2-yl)sulfinyl)methyl)thiophene-2-carbonitrile] |
| > 2000 nM | > 2000 nM | 780 nM | > 10000 nM | > 2000 nM | 1170 nM | 670 nM | 670 nM | > 2000 nM | > 2000 nM | 1210 nM | CC(=O)c1c([S+]([O-])Cc2ccc(-n3cccn3)nc2)[nH]c2c(Br)ccc(Cl)c2c1=O (stereo not shown) [Compound 99, 2-(((6-(1H-pyrazol-1-yl)pyridin-3-yl)methyl)sulfinyl)-3-acetyl-8-bromo-5-chloroquinolin-4(1H)-one] |
| > 2000 nM | > 10000 nM | > 2000 nM | > 10000 nM | > 2000 nM | > 2000 nM | > 2000 nM | > 2000 nM | > 2000 nM | > 2000 nM | > 2000 nM | CC(=O)c1c([S+]([O-])Cc2ccc(N)nc2)[nH]c2c(Br)ccc(Cl)c2c1=O (stereo not shown) [Compound 100, 3-acetyl-2-(((6-aminopyridin-3-yl)methyl)sulfinyl)-8-bromo-5-chloroquinolin-4(1H)-one] |
| > 2000 nM | > 10000 nM | 1220 nM | > 10000 nM | > 2000 nM | > 2000 nM | 1670 nM | 1670 nM | > 2000 nM | > 2000 nM | > 2000 nM | O=C(c1c([S+]([O-])Cc2ccc(SC(F)(F)F)cc2)[nH]c2c(Br)ccc(Cl)c2c1=O)C1CC1 (stereo not shown) [Compound 101, 8-bromo-5-chloro-3-(cyclopropanecarbonyl)-2-((4-((trifluoromethyl)thio)benzyl)sulfinyl)quinolin-4(1H)-one] |
| > 2000 nM | > 10000 nM | 1020 nM | > 10000 nM | > 2000 nM | 1720 nM | 1350 nM | 850 nM | > 2000 nM | > 2000 nM | 1630 nM | CC(=O)c1c([S+]([O-])Cc2ccc(C(F)(F)F)nc2C)[nH]c2c(Br)ccc(Cl)c2c1=O (stereo not shown) [Compound 102, 3-acetyl-8-bromo-5-chloro-2-(((2-methyl-6-(trifluoromethyl)pyridin-3-yl)methyl)sulfinyl)quinolin-4(1H)-one] |
| > 2000 nM | > 10000 nM | > 2000 nM | > 10000 nM | > 2000 nM | > 2000 nM | > 2000 nM | 1740 nM | > 2000 nM | > 2000 nM | > 2000 nM | CC(=O)c1c([S+]([O-])Cc2ccc(NS(C)(=O)=O)cc2)[nH]c2c(Br)ccc(Cl)c2c1=O (stereo not shown) [Compound 103, N-(4-(((3-acetyl-8-bromo-5-chloro-4-oxo-1,4-dihydroquinolin-2-yl)sulfinyl)methyl)phenyl)methane-sulfonamide] |
| > 2000 nM | > 10000 nM | 1050 nM | > 10000 nM | > 2000 nM | 1540 nM | 1460 nM | 930 nM | > 2000 nM | > 2000 nM | 1200 nM | CC(=O)c1c([S+]([O-])Cc2ccc(Cl)nc2)[nH]c2c(Br)ccc(Cl)c2c1=O (stereo not shown) [Compound 104, 3-acetyl-8-bromo-5-chloro-2-(((6-chloropyridin-3-yl)methyl)sulfinyl)quinolin-4(1H)-one] |
| > 2000 nM | > 10000 nM | > 2000 nM | > 10000 nM | > 2000 nM | > 2000 nM | > 2000 nM | > 2000 nM | > 2000 nM | > 2000 nM | > 2000 nM | COCCNc1ccc(C[S+]([O-])c2[nH]c3c(Br)ccc(Cl)c3c(=O)c2C(C)=O)cn1 (stereo not shown) [Compound 105, 3-acetyl-8-bromo-5-chloro-2-(((6-((2-methoxyethyl)amino)pyridin-3-yl)methyl)sulfinyl)quinolin-4(1H)-one] |
| > 2000 nM | > 10000 nM | > 2000 nM | > 10000 nM | > 2000 nM | > 2000 nM | > 2000 nM | > 2000 nM | > 2000 nM | > 2000 nM | > 2000 nM | CC(=O)c1c([S+]([O-])Cc2nonc2C)[nH]c2c(Br)ccc(Cl)c2c1=O (stereo not shown) [Compound 106, 3-acetyl-8-bromo-5-chloro-2-(((4-methyl-1,2,5-oxadiazol-3-yl)methyl)sulfinyl)quinolin-4(1H)-one] |

Reference: patent publication US11464770B2, “Anticancer pharmaceutical composition” (NATIONAL CANCER CENTER, priority 2016, dated 2022)
